Experimental data taken from patent publication US10588315B2, “Fungicidal compositions” (Syngenta Participations AG, priority 2012, dated 2020).
Where “and” joins values, the source holds several entries; their conditions need not be identical. Identical values can stand only once. Like-named read-outs stand apart in the source and are kept apart here.

Experiments:
Format in all cases: cell-based
[1] = system: Botryotinia fuckeliana (Botrytis cinerea); assay: Botryotinia fuckeliana (Botrytis cinerea) / liquid culture
Method: (§1) Mycelia fragments or conidia suspensions of a fungus, prepared either freshly from liquid cultures of the fungus or from cryogenic storage, were directly mixed into nutrient broth. DMSO solutions of the test compound (max. 10 mg/ml) was diluted with 0.025% Tween20 by factor 50 and 10 μl of this solution was pipetted into a microtiter plate (96-well format). […] The test plates were incubated in the dark at 24° C. and 96% rh. The inhibition of fungal growth was determined photometrically and visually after 2-4 days, depending on the pathosystem, and percent antifungal activity relative to the untreated check was calculated.
Conidia of the fungus from cryogenic storage were directly mixed into nutrient broth (Vogels broth). After placing a (DMSO) solution of test compound into a microtiter plate (96-well format), the nutrient broth containing the fungal spores was added.

Fusarium culmorum = Fusarium culmorum / liquid culture
Method: as §1
(§2) Conidia of the fungus from cryogenic storage were directly mixed into nutrient broth (PDB potato dextrose broth). After placing a (DMSO) solution of test compound into a microtiter plate (96-well format), the nutrient broth containing the fungal spores was added.

Gaeumannomyces graminis = Gaeumannomyces graminis / liquid culture; conditions: for inhibition at 0.2 ppm: 1.001 0.2000 ppm; for inhibition at 0.1 ppm: 1.001 0.1000 ppm
Method: (§3) Mycelia fragments or conidia suspensions of a fungus, prepared either freshly from liquid cultures of the fungus or from cryogenic storage, were directly mixed into nutrient broth. DMSO solutions of the test compound (max. 10 mg/ml) was diluted with 0.025% Tween20 by factor 50 and 10 μl of this solution was pipetted into a microtiter plate (96-well format). The nutrient broth containing the fungal spores/mycelia fragments was then added to give an end concentration of the tested compound. The test plates were incubated in the dark at 24° C. and 96% rh. The inhibition of fungal growth was determined photometrically and visually after 2-4 days, depending on the pathosystem, and percent antifungal activity relative to the untreated check was calculated.
Mycelial fragments of the fungus from cryogenic storage were directly mixed into nutrient broth (PDB potato dextrose broth). After placing a (DMSO) solution of test compound into a microtiter plate (96-well format), the nutrient broth containing the fungal spores was added.

[2] = system: Monographella nivalis (Microdochium nivale); assay: Monographella nivalis (Microdochium nivale) / liquid culture; conditions: for inhibition at 0.025 ppm: 1.001 0.0250 ppm; for inhibition at 0.05 ppm: 1.001 0.0500 ppm
Method: as §3, §2

[3] = system: Mycosphaerella graminicola (Septoria tritici); assay: Mycosphaerella graminicola (Septoria tritici) / liquid culture; conditions: Zymoseptoria tritici, read-out: observed % activity; for inhibition at 0.0031 ppm: 1.001 0.0031 ppm; for inhibition at 0.0016 ppm: 1.001 0.0016 ppm; for inhibition at 0.0008 ppm: 1.001 0.0008 ppm
Method: as §3, §2

[4] = system: Thanatephorus cucumeris (Rhizoctonia solani); assay: Thanatephorus cucumeris (Rhizoctonia solani) / liquid culture; conditions: for inhibition at 0.1 ppm: 1.001 0.1000 ppm; for inhibition at 0.05 ppm: 1.001 0.0500 ppm
Method: as §3
Mycelia fragments of a newly grown liquid culture of the fungus were directly mixed into nutrient broth (PDB potato dextrose broth). After placing a (DMSO) solution of the test compounds into a microtiter plate (96-well format), the nutrient broth containing the fungal material was added.

[5] = Gaeumannomyces graminis, B4.1, read-out: observed % activity
[6] = Gaeumannomyces graminis, B5.1, read-out: observed % activity
[7] = Gaeumannomyces graminis, B9.1, read-out: observed % activity
[8] = Monographella nivalis, B1.3, read-out: observed % activity
[9] = Monographella nivalis, B2.3, read-out: observed % activity
[10] = Monographella nivalis, B5.4, read-out: observed % activity
[11] = Thanatephorus cucumeris, B5.5, read-out: observed % activity

CON(C(=O)c1cn(C)nc1C(F)F)C(C)Cc1c(Cl)cc(Cl)cc1Cl (stereo not shown) [Compound 1.001, 3-(difluoromethyl)-N-methoxy-1-methyl-N-[1-methyl-2-(2,4,6-trichlorophenyl)ethyl]pyrazole-4-carboxamide]
observed % activity ([1]; 1.001 0.0031 ppm): 76%
observed % activity ([1]; 1.001 0.0063 ppm): 69% and 63% and 85% and 64% and 88% and 74% and 87%
observed % activity ([1]; 1.001 0.0125 ppm): 84% and 88%
inhibition at 0.0016 ppm ([1]; Botrytis cinerea, 1.001 0.0016 ppm (Table B55), read-out: observed % activity): 38%
inhibition at 0.0031 ppm ([1]; Botrytis cinerea, 1.001 0.0031 ppm (Table B54), read-out: observed % activity): 75%
inhibition at 0.0031 ppm ([1]; Botrytis cinerea, 1.001 0.0031 ppm (Table B55), read-out: observed % activity): 53%
inhibition at 0.0063 ppm ([1]; Botrytis cinerea, 1.001 0.0063 ppm (Table B54), read-out: observed % activity): 89%
inhibition at 0.0063 ppm ([1]; Botrytis cinerea, 1.001 0.0063 ppm (Table B55), read-out: observed % activity): 66%
inhibition at 0.0125 ppm ([1]; Botrytis cinerea, 1.001 0.0125 ppm, read-out: observed % activity): 83%
observed % activity (Fusarium culmorum; 1.001 0.0125 ppm): 11% and 16% and 7% and 10% and 6%
observed % activity (Fusarium culmorum; 1.001 0.0250 ppm): 24% and 28% and 34%
observed % activity (Fusarium culmorum; 1.001 0.0500 ppm): 46% and 54%
observed % activity (Fusarium culmorum; 1.001 0.1000 ppm): 50% and 56% and 52% and 57%
inhibition at 0.0063 ppm (Fusarium culmorum; Fusarium culmorum, 1.001 0.0063 ppm, read-out: observed % activity): 9%
inhibition at 0.05 ppm (Fusarium culmorum; Fusarium culmorum, 1.001 0.0500 ppm (Table B54), read-out: observed % activity): 51%
inhibition at 0.05 ppm (Fusarium culmorum; Fusarium culmorum, 1.001 0.0500 ppm, read-out: observed % activity): 49%
inhibition at 0.1 ppm (Fusarium culmorum; Fusarium culmorum, 1.001 0.1000 ppm (Table B54), read-out: observed % activity): 55%
inhibition at 0.1 ppm (Fusarium culmorum; Fusarium culmorum, 1.001 0.1000 ppm, read-out: observed % activity): 58%
inhibition at 0.2 ppm (Fusarium culmorum; Fusarium culmorum, 1.001 0.2000 ppm (Table B54), read-out: observed % activity): 60%
inhibition at 0.2 ppm (Fusarium culmorum; Fusarium culmorum, 1.001 0.2000 ppm, read-out: observed % activity): 60%
inhibition at 0.025 ppm (Fusarium culmorum; Fusarium culmorum, B3.3, 1.001 0.0250 ppm, read-out: observed % activity): 19%
inhibition at 0.05 ppm (Fusarium culmorum; Fusarium culmorum, B3.3, 1.001 0.0500 ppm, read-out: observed % activity): 48%
inhibition at 0.1 ppm (Fusarium culmorum; Fusarium culmorum, B3.3, 1.001 0.1000 ppm, read-out: observed % activity): 55%
inhibition at 0.2 ppm (Fusarium culmorum; Fusarium culmorum, B3.3, 1.001 0.2000 ppm, read-out: observed % activity): 59%
inhibition at 0.025 ppm (Fusarium culmorum; Fusarium culmorum, B5.3, 1.001 0.0250 ppm, read-out: observed % activity): 9%
inhibition at 0.05 ppm (Fusarium culmorum; Fusarium culmorum, B5.3, 1.001 0.0500 ppm, read-out: observed % activity): 39%
observed % activity (Gaeumannomyces graminis; 1.001 0.0063 ppm): 10%
observed % activity (Gaeumannomyces graminis; 1.001 0.0125 ppm): 1%
observed % activity (Gaeumannomyces graminis; 1.001 0.0250 ppm): 6%
observed % activity (Gaeumannomyces graminis; 1.001 0.0500 ppm): 3% and 1% and 9%
inhibition at 0.0016 ppm (Gaeumannomyces graminis; Gaeumannomyces graminis, 1.001 0.0016 ppm, read-out: observed % activity): 0%
inhibition at 0.2 ppm (Gaeumannomyces graminis; Gaeumannomyces graminis, B1.1, read-out: observed % activity): 7%
inhibition at 0.0125 ppm (Gaeumannomyces graminis; Gaeumannomyces graminis, B2.1, 1.001 0.0125 ppm, read-out: observed % activity): 0%
inhibition at 0.025 ppm (Gaeumannomyces graminis; Gaeumannomyces graminis, B2.1, 1.001 0.0250 ppm, read-out: observed % activity): 4%
inhibition at 0.05 ppm (Gaeumannomyces graminis; Gaeumannomyces graminis, B2.1, 1.001 0.0500 ppm, read-out: observed % activity): 0%
inhibition at 0.1 ppm (Gaeumannomyces graminis; Gaeumannomyces graminis, B2.1, read-out: observed % activity): 0%
inhibition at 0.0031 ppm (Gaeumannomyces graminis; Gaeumannomyces graminis, B3.1, 1.001 0.0031 ppm, read-out: observed % activity): 0%
inhibition at 0.0063 ppm (Gaeumannomyces graminis; Gaeumannomyces graminis, B3.1, 1.001 0.0063 ppm, read-out: observed % activity): 0%
inhibition at 0.0125 ppm (Gaeumannomyces graminis; Gaeumannomyces graminis, B3.1, 1.001 0.0125 ppm, read-out: observed % activity): 8%
inhibition at 0.025 ppm (Gaeumannomyces graminis; Gaeumannomyces graminis, B3.1, 1.001 0.0250 ppm, read-out: observed % activity): 0%
inhibition at 0.05 ppm (Gaeumannomyces graminis; Gaeumannomyces graminis, B3.1, 1.001 0.0500 ppm, read-out: observed % activity): 0%
inhibition at 0.0125 ppm (Gaeumannomyces graminis; Gaeumannomyces graminis, B4.1, 1.001 0.0125 ppm, read-out: observed % activity): 0%
inhibition at 0.025 ppm (Gaeumannomyces graminis; Gaeumannomyces graminis, B4.1, 1.001 0.0250 ppm, read-out: observed % activity): 0%
inhibition at 0.05 ppm (Gaeumannomyces graminis; Gaeumannomyces graminis, B4.1, 1.001 0.0500 ppm, read-out: observed % activity): 0%
inhibition at 0.1 ppm (Gaeumannomyces graminis; [5]): 0%
inhibition at 0.2 ppm (Gaeumannomyces graminis; [5]): 12%
inhibition at 0.025 ppm (Gaeumannomyces graminis; Gaeumannomyces graminis, B5.1, 1.001 0.0250 ppm, read-out: observed % activity): 0%
inhibition at 0.05 ppm (Gaeumannomyces graminis; Gaeumannomyces graminis, B5.1, 1.001 0.0500 ppm, read-out: observed % activity): 2%
inhibition at 0.1 ppm (Gaeumannomyces graminis; [6]): 0%
inhibition at 0.2 ppm (Gaeumannomyces graminis; [6]): 0%
inhibition at 0.0063 ppm (Gaeumannomyces graminis; Gaeumannomyces graminis, B6.1, 1.001 0.0063 ppm, read-out: observed % activity): 0%
inhibition at 0.025 ppm (Gaeumannomyces graminis; Gaeumannomyces graminis, B6.1, 1.001 0.0250 ppm, read-out: observed % activity): 0%
inhibition at 0.1 ppm (Gaeumannomyces graminis; Gaeumannomyces graminis, B6.1, read-out: observed % activity): 0%
inhibition at 0.0125 ppm (Gaeumannomyces graminis; Gaeumannomyces graminis, B9.1, 1.001 0.0125 ppm, read-out: observed % activity): 0%
inhibition at 0.025 ppm (Gaeumannomyces graminis; Gaeumannomyces graminis, B9.1, 1.001 0.0250 ppm, read-out: observed % activity): 0%
inhibition at 0.05 ppm (Gaeumannomyces graminis; Gaeumannomyces graminis, B9.1, 1.001 0.0500 ppm, read-out: observed % activity): 0%
inhibition at 0.1 ppm (Gaeumannomyces graminis; [7]): 0%
inhibition at 0.2 ppm (Gaeumannomyces graminis; [7]): 0%
observed % activity ([2]; 1.001 0.0016 ppm): 4%
observed % activity ([2]; 1.001 0.0031 ppm): 10% and 6%
observed % activity ([2]; 1.001 0.0125 ppm): 4%
observed % activity ([2]; 1.001 0.1000 ppm): 61%
observed % activity ([2]; 1.001 0.2000 ppm): 90% and 87% and 79%
inhibition at 0.004 ppm ([2]; Monographella nivalis, 1.001 0.004 ppm, read-out: observed % activity): 0%
inhibition at 0.1 ppm ([2]; Monographella nivalis, 1.001 0.1000 ppm (Table B54), read-out: observed % activity): 22%
inhibition at 0.1 ppm ([2]; Monographella nivalis, 1.001 0.1000 ppm (Table B55), read-out: observed % activity): 19%
inhibition at 0.2 ppm ([2]; Monographella nivalis, 1.001 0.2000 ppm, read-out: observed % activity): 85%
inhibition at 0.0125 ppm ([2]; Monographella nivalis, B1.3, 1.001 0.0125 ppm, read-out: observed % activity): 0%
inhibition at 0.025 ppm [2, 8]: 5%
inhibition at 0.05 ppm [2, 8]: 45%
inhibition at 0.2 ppm ([2]; Monographella nivalis, B1.3, 1.001 0.2000 ppm, read-out: observed % activity): 78%
inhibition at 0.025 ppm [2, 9]: 0%
inhibition at 0.05 ppm [2, 9]: 26%
inhibition at 0.0008 ppm ([2]; Monographella nivalis, B3.4, 1.001 0.0008 ppm, read-out: observed % activity): 1%
inhibition at 0.05 ppm ([2]; Monographella nivalis, B4.3, read-out: observed % activity): 15%
inhibition at 0.1 ppm ([2]; Monographella nivalis, B4.3, 1.001 0.1000 ppm, read-out: observed % activity): 64%
inhibition at 0.025 ppm [2, 10]: 2%
inhibition at 0.05 ppm [2, 10]: 9%
inhibition at 0.1 ppm ([2]; Monographella nivalis, B5.4, 1.001 0.1000 ppm, read-out: observed % activity): 60%
inhibition at 0.0016 ppm ([2]; Monographella nivalis, B6.3, 1.001 0.0016 ppm, read-out: observed % activity): 0%
inhibition at 0.0031 ppm ([2]; Monographella nivalis, B6.3, 1.001 0.0031 ppm, read-out: observed % activity): 3%
inhibition at 0.0004 ppm ([3]; 1.001 0.0004 ppm): 9%
inhibition at 0.0031 ppm [3]: 88%
inhibition at 0.0016 ppm ([3]; B1.5): 52%
inhibition at 0.0016 ppm ([3]; B3.5): 42%
inhibition at 0.0031 ppm ([3]; B3.5): 83%
inhibition at 0.0008 ppm ([3]; B5.6): 27%
inhibition at 0.0016 ppm ([3]; B5.6): 45%
inhibition at 0.0031 ppm ([3]; B5.6): 82%
inhibition at 0.0008 ppm ([3]; B6.4): 11%
inhibition at 0.0016 ppm ([3]; B6.4): 53%
inhibition at 0.0031 ppm ([3]; B6.4): 89%
observed % activity ([4]; 1.001 0.0250 ppm): 8%
inhibition at 0.0031 ppm ([4]; Thanatephorus cucumeris, 1.001 0.0031 ppm, read-out: observed % activity): 5%
inhibition at 0.0063 ppm ([4]; Thanatephorus cucumeris, 1.001 0.0063 ppm, read-out: observed % activity): 0%
inhibition at 0.0125 ppm ([4]; Thanatephorus cucumeris, B1.4, 1.001 0.0125 ppm, read-out: observed % activity): 0%
inhibition at 0.025 ppm ([4]; Thanatephorus cucumeris, B1.4, 1.001 0.0250 ppm, read-out: observed % activity): 6%
inhibition at 0.1 ppm ([4]; Thanatephorus cucumeris, B1.4, read-out: observed % activity): 0%
inhibition at 0.025 ppm ([4]; Thanatephorus cucumeris, B5.5, 1.001 0.0250 ppm, read-out: observed % activity): 13%
inhibition at 0.05 ppm [4, 11]: 1%
inhibition at 0.1 ppm [4, 11]: 17%
inhibition at 0.05 ppm ([4]; Thanatephorus cucumeris, B9.3, read-out: observed % activity): 0%
inhibition at 0.2 ppm ([4]; Thanatephorus cucumeris, B9.3, 1.001 0.2000 ppm, read-out: observed % activity): 6%
